Values of other authors as cited in patent publication US8563018B2, “Foamable pesticide compositions” (priority 2009, dated 2013).

Tests used:
termites = settings: in vivo
ants = settings: in vivo

N#Cc1nn(-c2c(Cl)cc(C(F)(F)F)cc2Cl)c(N)c1[S+]([O-])C(F)(F)F (racemic) [Fipronil, (±)-5-amino-1-(2,6-dichloro-α,α,α-trifluoro-p-tolyl)-4-trifluoromethylsulfinylpyrazole-3-carbonitrile]
dose toxic to termites (termites): 2 nanograms per termite
dose toxic to ants (ants): about 1 nanogram per ant
